Measured values published in US12594279B2, “Composition for preventing or treating TNF-α-related disease, comprising hydroflumethiazide as active ingredient” (SK CHEMICALS CO., LTD., priority 2020, dated 2026).
Counter-ions that a name gives are not always drawn.

Key:
[1] = tested on: rheumatoid arthritis DBA-1J mouse model; experiment: Size of lower extremity edema  in rheumatoid arthritis DBA-1J mouse model; assay type: in vivo; set-up: Size of lower extremity edema, Right Feet / Size of lower extremity edema, Left Feet: unit not given here
Description: (§1) DBA-1J mice were purchased from Central Lab. Animal Inc. Bovine Type II collagen (2 mg/mL) was emulsified in 4 mg/mL of Complete Freund's adjuvant at 1:1, and then injected subcutaneously to the DBA-1J mice at the base of the tail with 100 μL/head to induce arthritis first. Then, after 3 weeks, Bovine Type II collagen (2 mg/mL) was emulsified in Incomplete Freund's adjuvant at 1:1 and injected subcutaneously to the DBA-1J mice at the base of the tail with 100 μL/head to prepare rheumatoid arthritis animal models.
(§2) As a normal control group, 0.5% methyl cellulose (MC) was orally administered to healthy DBA-1J mice, and as a comparative control group, 0.5% MC was orally administered to the prepared rheumatoid arthritis mouse models, daily for 2 weeks. Methotrexate (MTX, 2 mg/kg/2 day), hydroxychloroquine (HCQ, 80 mg/kg/day), which are commercially available therapeutic agents for rheumatoid arthritis, and hydroflumethiazide (5 mg/kg/day or 20 mg/kg/day) were orally administered daily for 2 weeks to the prepared rheumatoid arthritis mouse models, respectively.
Arthritis indices were measured on day 9 and 14 after the administration of each drug in each of the control groups and experimental groups on the basis of the following criteria. Reference: 0, No edema or swelling: 1, Mild edema and redness confined to the joint: 2, Mild edema and redness from the joint to carpal bone and tarsal bone: 3, Moderate edema and redness from the joint to carpal bone and tarsal bone: 4, Overall edema and redness and joint stiffness: 5. In the arthritis index, the highest score was set to 16 points by summing up the four limb scores. […]

[2] = tested on: rheumatoid arthritis DBA-1J mouse model; experiment: Histopathological quantification of ankle regions (H&E, safranin-O) in rheumatoid arthritis DBA-1J mouse model; assay type: in vivo
Description: as §1, §2
On day 14 of administration, the mice in each of the control groups and experimental groups were sacrificed, and then joint staining photographs were taken through the following process. The ankle areas of the sacrificed mice were subjected to general tissue treatment processes such as demineralization, trimming, dehydration, paraffin embedding, and microtome cutting to prepare specimens for histopathological examination. Then, Hematoxylin & Eosin (H&E) and safranin-O stainings were performed, and histopathological changes were observed using an optical microscope (FIG. 5).
In addition, the degrees of synovium proliferation, bone destruction, and cartilage damage were quantified, and the results are shown in Table 5 below.

[3] = tested on: rheumatoid arthritis DBA-1J mouse model; experiment: Arthritis index in collagen-induced rheumatoid arthritis DBA-1J mouse model; assay type: in vivo
Description: as §1, §2
[…] Reference: 0, No edema or swelling: 1, Mild edema and redness confined to the joint: 2, Mild edema and redness from the joint to carpal bone and tarsal bone: 3, Moderate edema and redness from the joint to carpal bone and tarsal bone: 4, Overall edema and redness and joint stiffness: 5. In the arthritis index, the highest score was set to 16 points by summing up the four limb scores. In addition, the size of the lower extremity edema was measured using a micrometer on day 14 after each drug was administered in each of the control groups and experimental groups.

[4] = tested on: rheumatoid arthritis DBA-1J mouse model; experiment: Histopathological quantification of ankle regions (H&E, safranin-O) in rheumatoid arthritis DBA-1J mouse model; assay type: in vivo; details: oral, FIG. 6
TNF-α = TNF-α expression level by ELISA in LPS-induced RAW 264.7 cells; assay type: cell-based; details: for TNF-α: LPS 10 ng/ml-induced RAW 264.7, ELISA
Description: In addition, in order to confirm an effect of inhibiting the TNF-α expression of hydroflumethiazide in induced inflammatory cells, an experiment was performed as follows. RAW 264.7 cells were treated with DMSO at a concentration of 0.01% (v/v) as an untreated control group, and the cells were treated with LPS at a concentration of 10 ng/ml as a control group to induce an inflammatory response. […] Then, the expression level of TNF-α was measured and compared through the ELISA method in the groups treated with respective drugs.

RAW 264.7 = experiment: MTT assay cell viability; assay type: cell-based; details: for Cytotoxicity (MTT assay): concentrations of Table 1
[5] = Mus musculus, RAW264.7, TNF-α, LPS-induced RAW 264.7, 20 uM

`CCN(CCO)CCCC(C)Nc1ccnc2cc(Cl)ccc12` (stereo not drawn) [HCQ, hydroxychloroquine] was tested, and the “Size of lower extremity edema, Left Feet” value ([1]; Day 0, G4, 80 mg/kg/day oral) was 0.12 ± 0.02, the “Size of lower extremity edema, Right Feet” value ([1]; Day 0, G4, 80 mg/kg/day oral) was 0.11 ± 0.02 and the “Size of lower extremity edema, Left Feet” value ([1]; Day 14, G4, 80 mg/kg/day oral) was 0.16 ± 0.04. For the same compound, the “Size of lower extremity edema, Right Feet” value ([1]; Day 14, G4, 80 mg/kg/day oral) was 0.15 ± 0.03, the Bone destruction ([2]; day 14, G4, 80 mg/kg/day oral) was 2.3 ± 0.5 and the Cartilage damage ([2]; day 14, G4, 80 mg/kg/day oral) was 2 ± 0.6. For the same compound, the Synovium proliferation ([2]; day 14, G4, 80 mg/kg/day oral) was 3 ± 0.0, the “Total (synovium proliferation, cartilage damage, bone destruction)” value (“Total” for short) ([2]; day 14, G4, 80 mg/kg/day oral) was 7.3 ± 1.0 and the Arthritis index ([3]; Day 0, G4, 80 mg/kg/day oral) was 2.3 ± 1.4. For the same compound, the Arthritis index ([3]; Day 2, G4, 80 mg/kg/day oral) was 4.7 ± 1.2, the Arthritis index ([3]; Day 4, G4, 80 mg/kg/day oral) was 6 ± 1.3 and the Arthritis index ([3]; Day 7, G4, 80 mg/kg/day oral) was 7 ± 1.3. It also gave an Arthritis index ([3]; Day 9, G4, 80 mg/kg/day oral) of 7.5 ± 1.2, an Arthritis index ([3]; Day 11, G4, 80 mg/kg/day oral) of 7.8 ± 1.2 and an Arthritis index ([3]; Day 14, G4, 80 mg/kg/day oral) of 8.5 ± 1.5.

`NS(=O)(=O)c1cc2c(cc1C(F)(F)F)NCNS2(=O)=O` [Hydroflumethiazide, hydroflumethiazide] was tested, and the “Anti-arthritic effect compared to HCQ” value [4] was “superior to HCQ”, the TNF-α (TNF-α; 0.1 uM) was 1466.48 pg/mL and the TNF-α (TNF-α; 1 uM) was 1289.62 pg/mL. For the same compound, the TNF-α (TNF-α; 10 uM) was 837.44 pg/mL, the TNF-α (TNF-α; 20 uM) was 625.65 pg/mL and the inhibition at 0.1 µM (TNF-α; Mus musculus, RAW264.7, TNF-α, LPS-induced RAW 264.7, 0.1 uM) was 20.8%. For the same compound, the inhibition at 1 µM (TNF-α; Mus musculus, RAW264.7, TNF-α, LPS-induced RAW 264.7, 1 uM) was 30.4%, the inhibition at 10 µM (TNF-α; Mus musculus, RAW264.7, TNF-α, LPS-induced RAW 264.7, 10 uM) was 54.8% and the inhibition at 20 µM (TNF-α; [5]) was 66.2%. The “Decrease of expression level of TNF-α” value (TNF-α; inflammatory response-induced RAW 264.7, at least 0.1 μM) was “at least 20%”, the “Expression level of TNF-α compared to the group treated with PS1145” value (TNF-α; inflammatory response-induced RAW 264.7, at least 1 μM) was “further decreased compared to the group treated with PS1145” and the “Decrease of expression of TNF-α” value (TNF-α; inflammatory response-induced RAW 264.7, at least 10 μM) was “at least 50%”. The “Size of the lower extremity edema compared to the MTX-administered group” value ([1]; 20 mg/kg/day, day 14) was “decreased at a similar level to the MTX-administered group”, the “Size of lower extremity edema, Left Feet” value ([1]; Day 0, G5, 5 mg/kg/day oral) was 0.09 ± 0.01 and the “Size of lower extremity edema, Right Feet” value ([1]; Day 0, G5, 5 mg/kg/day oral) was 0.11 ± 0.03. For the same compound, the “Size of lower extremity edema, Left Feet” value ([1]; Day 0, G6, 20 mg/kg/day oral) was 0.11 ± 0.03, the “Size of lower extremity edema, Right Feet” value ([1]; Day 0, G6, 20 mg/kg/day oral) was 0.1 ± 0.01 and the “Size of lower extremity edema, Left Feet” value ([1]; Day 14, G5, 5 mg/kg/day oral) was 0.14 ± 0.02. For the same compound, the “Size of lower extremity edema, Right Feet” value ([1]; Day 14, G5, 5 mg/kg/day oral) was 0.15 ± 0.04, the “Size of lower extremity edema, Left Feet” value ([1]; Day 14, G6, 20 mg/kg/day oral) was 0.15 ± 0.03 and the “Size of lower extremity edema, Right Feet” value ([1]; Day 14, G6, 20 mg/kg/day oral) was 0.15 ± 0.03. It also gave a Bone destruction ([2]; day 14, G5, 5 mg/kg/day oral) of 1.8 ± 1.0, a Cartilage damage ([2]; day 14, G5, 5 mg/kg/day oral) of 2 ± 0.9 and a Synovium proliferation ([2]; day 14, G5, 5 mg/kg/day oral) of 3 ± 0.0. For the same compound, the “Total” value ([2]; day 14, G5, 5 mg/kg/day oral) was 6.8 ± 1.8, the Bone destruction ([2]; day 14, G6, 20 mg/kg/day oral) was 2.5 ± 0.5 ^ and the Cartilage damage ([2]; day 14, G6, 20 mg/kg/day oral) was 1.7 ± 0.8. The Synovium proliferation ([2]; day 14, G6, 20 mg/kg/day oral) was 2.2 ± 1.2, the “Total” value ([2]; day 14, G6, 20 mg/kg/day oral) was 6.3 ± 1.5 and the “Cytotoxicity (MTT assay)” value (RAW 264.7) was “cytotoxicity was not exhibited”. For the same compound, the Viability (RAW 264.7; treatment concentration 0.1 uM) was 106.35%, the Viability (RAW 264.7; treatment concentration 1 uM) was 101.82% and the Viability (RAW 264.7; treatment concentration 10 uM) was 105.73%. For the same compound, the Viability (RAW 264.7; treatment concentration 20 uM) was 101.11%, the “Arthritis index compared to the MTX-administered group” value ([3]; 20 mg/kg/day, day 14) was “decreased at a similar level to the MTX-administered group” and the Arthritis index ([3]; Day 0, G5, 5 mg/kg/day oral) was 2.3 ± 1. The Arthritis index ([3]; Day 0, G6, 20 mg/kg/day oral) was 2.3 ± 1, the Arthritis index ([3]; Day 2, G5, 5 mg/kg/day oral) was 4.2 ± 1.6 and the Arthritis index ([3]; Day 2, G6, 20 mg/kg/day oral) was 4 ± 1.7. For the same compound, the Arthritis index ([3]; Day 4, G5, 5 mg/kg/day oral) was 5.8 ± 1.8, the Arthritis index ([3]; Day 4, G6, 20 mg/kg/day oral) was 5 ± 1.4 and the Arthritis index ([3]; Day 7, G5, 5 mg/kg/day oral) was 6 ± 2.1. The Arthritis index ([3]; Day 7, G6, 20 mg/kg/day oral) was 5.7 ± 1.5, the Arthritis index ([3]; Day 9, G5, 5 mg/kg/day oral) was 6.7 ± 2.0 and the Arthritis index ([3]; Day 9, G6, 20 mg/kg/day oral) was 6.2 ± 1.7. The Arthritis index ([3]; Day 11, G5, 5 mg/kg/day oral) was 7.2 ± 1.7, the Arthritis index ([3]; Day 11, G6, 20 mg/kg/day oral) was 6.8 ± 1.6 and the Arthritis index ([3]; Day 14, G5, 5 mg/kg/day oral) was 8 ± 2.5. The Arthritis index ([3]; Day 14, G6, 20 mg/kg/day oral) was 7.3 ± 2.3 and the “Arthritis index compared to the HCQ-administered group” value ([3]; from day 9 of the administration) was “significantly decreased”.

`CN(Cc1cnc2nc(N)nc(N)c2n1)c1ccc(C(=O)N[C@@H](CCC(=O)O)C(=O)O)cc1` [MTX, Methotrexate] was tested, and the “Size of lower extremity edema, Left Feet” value ([1]; Day 0, G3, 2 mg/kg/2 day oral) was 0.11 ± 0.02, the “Size of lower extremity edema, Right Feet” value ([1]; Day 0, G3, 2 mg/kg/2 day oral) was 0.1 ± 0.02 and the “Size of lower extremity edema, Left Feet” value ([1]; Day 14, G3, 2 mg/kg/2 day oral) was 0.12 ± 0.02. The “Size of lower extremity edema, Right Feet” value ([1]; Day 14, G3, 2 mg/kg/2 day oral) was 0.15 ± 0.03, the Bone destruction ([2]; day 14, G3, 2 mg/kg/2 day oral) was 1.5 ± 0.8 and the Cartilage damage ([2]; day 14, G3, 2 mg/kg/2 day oral) was 1.3 ± 0.5. The Synovium proliferation ([2]; day 14, G3, 2 mg/kg/2 day oral) was 2.5 ± 0.5, the “Total” value ([2]; day 14, G3, 2 mg/kg/2 day oral) was 5.3 ± 1.5 and the Arthritis index ([3]; Day 0, G3, 2 mg/kg/2 day oral) was 2.3 ± 1.6. It also gave an Arthritis index ([3]; Day 2, G3, 2 mg/kg/2 day oral) of 4.2 ± 1.0, an Arthritis index ([3]; Day 4, G3, 2 mg/kg/2 day oral) of 5 ± 1.3 and an Arthritis index ([3]; Day 7, G3, 2 mg/kg/2 day oral) of 5.8 ± 1.3. The Arthritis index ([3]; Day 9, G3, 2 mg/kg/2 day oral) was 6.3 ± 1.4, the Arthritis index ([3]; Day 11, G3, 2 mg/kg/2 day oral) was 6.7 ± 1.5 and the Arthritis index ([3]; Day 14, G3, 2 mg/kg/2 day oral) was 7 ± 1.3.

With `O=C(Nc1cc(Cl)cc2c1[nH]c1cnccc12)c1cccnc1` [PS1145, N-(6-chloro-9H-pyrido[3,4-b]indol-8-yl)-3-pyridinecarboxamide dihydrochloride] the TNF-α (TNF-α; 20 uM) was 1402.08 pg/mL, the inhibition at 20 µM (TNF-α; [5]) was 24.3% and the “Cytotoxicity (MTT assay)” value (RAW 264.7) was “cytotoxicity was not exhibited”. It also gave a Viability (RAW 264.7; treatment concentration 20 uM) of 99.16%.
